What was measured:
[1] = molecular target: T1, human recombinant Aurora B (Homo sapiens, UniProt Q96GD4); experiment: Aurora B Kinase Biochemical Assay (ADP-Glo); details: selectivity ratio; Aurora B 10 nM, 114 μM ATP
T1 construct: purchased ThermoFisher PR9210B
Outline: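 Aurora B (10 nM) was pre-incubated with compound for 15 min, then reacted with 114 μM ATP and 4.7 μM MBP for 2 h at RT in 50 mM HEPES pH 7.5, 10 mM MgCl2, 1 mM DTT. ADP was read by ADP-Glo luminescence, and IC50 values came from four-parameter fits of 11-point, 3-fold titrations in duplicate.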

[2] = molecular target: T2, human recombinant Aurora A (Homo sapiens, UniProt O14965); experiment: Aurora A Kinase Biochemical Assay (ADP-Glo); details: selectivity ratio; Aurora A 2.5 nM, 20 μM ATP
T2 construct: purchased ThermoFisher PR5935A
T2 sequence (O14965 1-403): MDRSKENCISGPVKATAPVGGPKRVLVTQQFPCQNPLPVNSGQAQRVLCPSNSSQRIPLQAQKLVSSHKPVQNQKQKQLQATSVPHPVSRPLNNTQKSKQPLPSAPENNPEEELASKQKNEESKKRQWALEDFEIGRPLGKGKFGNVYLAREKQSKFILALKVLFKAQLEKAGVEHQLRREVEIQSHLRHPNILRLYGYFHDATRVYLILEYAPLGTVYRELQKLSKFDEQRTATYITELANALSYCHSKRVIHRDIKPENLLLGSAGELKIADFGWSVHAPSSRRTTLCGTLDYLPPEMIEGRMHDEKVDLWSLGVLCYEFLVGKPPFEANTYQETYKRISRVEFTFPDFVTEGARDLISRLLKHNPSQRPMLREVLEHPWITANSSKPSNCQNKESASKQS
Outline: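 Human recombinant Aurora A at 2.5 nM final was preincubated with compound (11-point, 3-fold titration) for 15 min at RT, then reacted with 20 μM ATP and 4.7 μM MBP for 2 h at RT in HEPES pH 7.5 buffer. ADP formed was read by ADP-Glo luminescence; IC50 from four-parameter fit.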

T1 sequence (Q96GD4 whole entry): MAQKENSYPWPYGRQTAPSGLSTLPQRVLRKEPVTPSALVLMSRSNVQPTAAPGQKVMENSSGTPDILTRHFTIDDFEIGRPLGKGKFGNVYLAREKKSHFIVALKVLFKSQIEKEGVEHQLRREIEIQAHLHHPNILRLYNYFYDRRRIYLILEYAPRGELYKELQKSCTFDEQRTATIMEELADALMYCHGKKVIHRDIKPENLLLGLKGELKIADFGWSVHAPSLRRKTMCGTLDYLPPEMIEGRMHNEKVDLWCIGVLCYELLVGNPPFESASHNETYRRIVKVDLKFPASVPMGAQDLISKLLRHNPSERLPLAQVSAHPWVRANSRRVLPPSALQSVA

[Aurora B IC50 (nM)]/[PLK4 IC50 (nM)] [1]	[Aurora A IC50 (nM)]/[PLK4 IC50 (nM)] [2]	Compound
559.1	2756.5515	CCOc1cc(-n2cncn2)cnc1Nc1n[nH]c2cc([C@@H]3C[C@@]34C(=O)Nc3ccc(OC)cc34)ccc12 [Example 38, (1R,2S)-2-(3-{[3-ethoxy-5-(1H-1,2,4-triazol-1-yl)pyridin-2-yl]amino}-1H-indazol-6-yl)-5′-methoxyspiro[cyclopropane-1,3′-indol]-2′(1′H)-one]
764.1	1647.6978	COc1ccc2c(c1)[C@]1(C[C@H]1c1ccc3c(Nc4cc(-c5cnn(CC(F)F)c5)ccc4OC)n[nH]c3c1)C(=O)N2 [Example 39, (1R,2S)-2-(3-{5-[1-(2,2-difluoroethyl)-1H-pyrazol-4-yl]-2-methoxyanilino}-1H-indazol-6-yl)-5′-methoxyspiro[cyclopropane-1,3′-indol]-2′(1′H)-one]
410.7334	288.4	COc1ccc2c(c1)[C@]1(C[C@H]1c1ccc3c(Nc4nc(-c5cnco5)ncc4OC)n[nH]c3c1)C(=O)N2 [Example 40, (1R,2S)-5′-methoxy-2-(3-{[5-methoxy-2-(1,3-oxazol-5-yl)pyrimidin-4-yl]amino}-1H-indazol-6-yl)spiro[cyclopropane-1,3′-indol]-2′(1′H)-one]
8707.7562	4711.9113	CCOc1ncc(-c2nccs2)cc1Nc1n[nH]c2cc([C@@H]3C[C@@]34C(=O)Nc3ccc(OC)cc34)ccc12 [Example 41, (1R,2S)-2-(3-{[2-ethoxy-5-(1,3-thiazol-2-yl)pyridin-3-yl]amino}-1H-indazol-6-yl)-5′-methoxyspiro[cyclopropane-1,3′-indol]-2′(1′H)-one]
465.6990	157.8304	COc1ccc2c(c1)[C@]1(C[C@H]1c1ccc3c(Nc4cc(-c5cocn5)cnc4OC)n[nH]c3c1)C(=O)N2 [Example 42, (1R,2S)-5′-methoxy-2-(3-{[2-methoxy-5-(1,3-oxazol-4-yl)pyridin-3-yl]amino}-1H-indazol-6-yl)spiro[cyclopropane-1,3′-indol]-2′(1′H)-one]
844.375	702.5	CCOc1cnc(-c2nccs2)nc1Nc1n[nH]c2cc([C@@H]3C[C@@]34C(=O)Nc3ccc(OC)cc34)ccc12 [Example 44, (1R,2S)-2-(3-{[5-ethoxy-2-(1,3-thiazol-2-yl)pyrimidin-4-yl]amino}-1H-indazol-6-yl)-5′-methoxyspiro[cyclopropane-1,3′-indol]-2′(1′H)-one]
8798.5611	42971.2230	CCOc1cnc(C#CC(C)(C)O)nc1Nc1n[nH]c2cc([C@@H]3C[C@@]34C(=O)Nc3ccc(OC)cc34)ccc12 [Example 45, (1R,2S)-2-(3-((5-ethoxy-2-(3-hydroxy-3-methylbut-1-yn-1-yl)pyrimidin-4-yl)amino)-1H-indazol-6-yl)-5′-methoxyspiro[cyclopropane-1,3′-indolin]-2′-one]
469.6557	469.9759	COc1ccc2c(c1)[C@]1(C[C@H]1c1ccc3c(Nc4cc(-c5cnn(CC(F)F)c5)cnc4OC)n[nH]c3c1)C(=O)N2 [Example 46, (1R,2S)-2-(3-((5-(1-(2,2-difluoroethyl)-1H-pyrazol-4-yl)-2-methoxypyridin-3-yl)amino)-1H-indazol-6-yl)-5′-methoxyspiro[cyclopropane-1,3′-indolin]-2′-one]

— patent US20260108527A1, “POLO LIKE KINASE 4 INHIBITORS” (ORIC Pharmaceuticals, Inc., priority 2022, published 2026)
